Assay results from US5977144A (priority 1997, dated 1999).
“Also recorded” adds a separate entry of the source. Read-outs that look alike come from different tables or passages of the source.

Assays:
[1] = tested on: nucleus basalis lesioned rats; assay: Passive avoidance behavior in nucleus basalis lesioned rats; type: in vivo, rat; settings: for passive avoidance behavior (in words): nucleus basalis lesioned rats
Description: Passive avoidance behavior was measured in nucleus basalis lesioned rats after intraperitoneal (IP) injections of drugs (base weight) or 0.9% saline diluent. For lesions, male 5 month old Sprague Dawley rats were anesthetized with 30 mg/kg sodium pentobarbital (IP) and then infused bilaterally with 1 μl of 5 μg/μl ibotenic acid in phosphate buffered saline, pH 7.4, into the nucleus basalis as described previously (17). Infusion coordinates were anterior 7.0 mm, lateral 2.6 mm and vertical 6.5 mm according to Paxinos and Watson (Paxinos and Watson, 1986).
Following surgery, animals were returned to their individual home cages and fed semi-solid mash made from Purina Rat Chow for several days. One month later, animals were trained in a two chamber passive avoidance paradigm. Fifteen min after IP drug injection, they were placed in the lit compartment, and allowed to enter the dark adjoining chamber. Animals that entered the second chamber received a mild foot shock (0.8 mA) for 1 sec. Rats were tested for latency 24 hr later for up to 5 min; this test also began 15 min after injection. Statistical analyses utilized rank order nonparametric comparisons of latencies.

PC12 cells [2] = type: cell-based
Description: PC12 cell-culture methods were modified from Greene and Tischler (1976). Cells were plated at 30-40% confluence and grown in Dulbecco's Modified Eagle Medium containing 10% heat-inactivated horse serum, 5% fetal bovine serum, 100 units/ml penicillin, 100 μg/ml streptomycin and 0.5 mM 1-glutamine. Cultures were maintained at 37° C., […] /6% CO2 and 90-92% humidity in culture plates pre-coated with poly-1lysine (10 g/L). Cultures were maintained for 7 days in serum-supplemented medium to which 100 ng/ml rat 2.5S NGF was added at day 1. On day 7, conditioned medium was replaced serum-free medium containing specified drugs. Four days later, cell density was estimated using the NIH Image program version 1.47 and number of neurite-expressing cells counted manually in blind fashion as described previously (Martin et al., 1994). A Nikon inverted microscope (100× magnification) was attached to a Mac II computer via a monochrome video camera (Cohu, Inc., San Diego, Calif.). Four random areas were counted per plate and there were 4 plates per treatment group, unless otherwise indicated. Neurites were defined as processes at least 2× the length of the perikaryon. To assess the reliability of the image analyses, a reticle was used for direct quantification of cells in the same view as the one analyzed in random samples.
PC12 cells were differentiated for 1 week with NGF. Drugs were administered for the 4 day interval after removal of serum and NGF. Neuites were counted and expressed as the mean±SEM of at least 3 plates/group.

PC12 cells [3] = settings: Martin et al., 1994, cited from earlier work
[4] = tested on: animal models of learning and memory; settings: animals; cited from earlier work
NMDA receptor = assay: High affinity [3H]MK801 binding to rat brain membranes; settings: concentrations up to 30 μM
rat [5] = assay: Focal ischemia infarct size in rats; type: in vivo
Description: FIG. 3. […] Rats received a 30 minute ischemia attack through tying of their common carotid; the amount of cell death (proportional to Infarct Size) was determined 24 hours later. Some animals received the benzylidene-anabaseine compound DMXB (1 mg/kg IP, salt weight) 1 hour before ligation, or the nicotinic antagonist mecamylamine (0.5 mg/kg IP), or both mecamylamine and DMXB, or DMXB 5 minutes after the ligation.
Male Sprague Dawley albino male rats (250-300 g) were anesthetized with a subcutaneous injection of ketamine, xylazine, and acepromazine (3:3:1 mixture, 0.7 cc/kg). Atropine (0.4 mg/kg IP) was injected several min prior to dissection of the carotid artery from the vagus. The internal carotid artery (ICA) was dissected until its proximal bifurcation into the terminal ICA and pterygopalatine arteries were clearly defined. The pterygopalatine artery was clipped parallel to and flush with the terminal ICA. Another clip was applied to the common carotid artery (CCA). The distal aspect of the external carotid artery (ECA) was coagulated and a straight aneurysm clip was applied 4 mm distal to the proximal ICA bifurcation. A suture was passed through the arteriotomized ECA stump into the ICA until the tip was resting against the aneurysm clip. The suture was removed 30 min later, with body temperature maintained between 36.5-37.5° C. The ECA stump was coagulated with bipolar electrocautery. Clips were removed and the wound was irrigated with saline prior to suturing.
Rats were euthanised 24 hours post-infarction and their brains removed and sectioned coronally (2 mm). Sections were placed into a 2% solution of 2,3,5-triphyenyl-tetrazolium cholide (Sigma Chemical Co., St. Louis. Mo.) for 20 minutes at 37° C. The sections were removed to a petri dish and covered with 10% formaldehyde solution. The outline function of the NIH Image computer program (version 1.47) was used to estimate the infarcted and total brain areas for each section. Infarct size was calculated as percent of total brain area.

rat alpha7 receptor = rat alpha7 receptor (Rattus norvegicus, UniProt Q05941); settings: cited from earlier work
Sequence of rat alpha7 receptor (Q05941 23-502): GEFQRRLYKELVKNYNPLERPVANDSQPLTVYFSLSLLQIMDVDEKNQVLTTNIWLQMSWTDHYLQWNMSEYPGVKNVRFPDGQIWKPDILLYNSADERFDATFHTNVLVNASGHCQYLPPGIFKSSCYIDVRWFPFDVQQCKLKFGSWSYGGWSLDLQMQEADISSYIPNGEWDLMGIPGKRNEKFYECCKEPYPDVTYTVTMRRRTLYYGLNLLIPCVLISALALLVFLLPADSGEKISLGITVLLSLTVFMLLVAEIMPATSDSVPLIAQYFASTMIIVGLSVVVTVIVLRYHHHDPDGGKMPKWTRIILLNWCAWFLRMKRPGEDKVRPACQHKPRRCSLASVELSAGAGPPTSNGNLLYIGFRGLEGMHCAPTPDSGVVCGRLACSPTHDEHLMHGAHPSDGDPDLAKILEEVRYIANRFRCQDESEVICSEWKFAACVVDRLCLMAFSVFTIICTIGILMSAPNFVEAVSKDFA

NB Lesion = NB Lesion (Table 4); type: in vivo
rat [6] = settings: adult rat

Structure (SMILES) | effective dose-response range, upper end ([1]; IP) | passive avoidance behavior (in words) ([1]; IP) | passive avoidance behavior (in words) ([1]; IP, listed as 2MeOCA) | passive avoidance behavior (in words) ([1]; IP, listed as trans-3(2-methoxy-cinnamylidene) anabaseine) | passive avoidance behavior (in words) ([1]; IP, listed as trans-3-(2-methoxycinnamylidene) anabaseine) | minimal effective dose ([1]; Rattus norvegicus, ip, read-out: effective dose-response range, lower end) | neurite protection during NGF-deprivation (in words) (PC12 cells [2]; 10 μM) | Neurite Counts (PC12 cells [2]; 10 μM (NGF 100 ng/ml), 4 days after removal of serum and NGF, mean±SEM, * p<0.05) | activity against trophic factor deprivation in PC12 cells (in words) (PC12 cells [3]; listed as GTS 21) | activity against trophic factor deprivation in PC12 cells (in words) (PC12 cells [3]; listed as GTS-21) | memory-related performance (in words) [4] | interference with high affinity [3H]MK801 binding (in words) (NMDA receptor) | protection against infarct / cell loss, given before ischemia (in words) (rat [5]; 1 mg/kg IP before ischemia) | infarct size (mean value) (rat [5]; coronal section 5 mm posterior to frontal pole, saline 28%) | protection against infarct, given during or after start of ischemia (in words) (rat [5]; during 30 min ischemic insult) | α7 agonist activity (in words) (rat alpha7 receptor; background/literature) | selectivity α7 over α4β2 / other nicotinic subtypes (in words) (rat alpha7 receptor; literature) | activity of ACh at α7 receptors (rat alpha7 receptor; partial agonist) | NB Lesion (NB Lesion) | spontaneous locomotor activity (in words) (rat [6])
COc1ccccc1/C=C/C=C1\CCCN=C1c1cccnc1 [2-MeOCA, E,E-3-(2-Methoxycinnamylidene)anabaseine] | at least 3 mg/kg | most potent | most potent performance-enhancing agent | less potent than the present compounds | high potency | < 0.1 mg/kg | Neither 2-MeOCA nor 4-MeOCA elicited neurite-protection | 213 ± 26 | – | – | – | – | – | – | – | – | – | – | – | –
COc1ccc(/C=C2\CCCN=C2c2cccnc2)c(OC)c1 [DMXB, 3-(2,4-Dimethoxybenzylidene) anabaseine] | – | – | – | – | – | – | – | – | sufficient to reduce this neurotoxicity | neuroprotective activity | enhances performance in several spatial and non-spatial memory-related paradigms in rats and rabbits | did not interfere | protected principally in the posterior infarct area; also recorded: protected against cell loss; also recorded: did not have as much cell loss | 19% | ineffective | weak partial agonist activity | selective as an agonist for α7 versus other nicotinic receptor subtypes | about 20% | + (≥ 0.5) | without adversely affecting the animal's other functions, including its spontaneous locomotor activity
